From patent US20060263802A1 (priority 2003, published 2006)

Tests used:
Format in all cases: binding
[1] = tested on: human monoclonal antibody CRJB
[2] = tested on: human monoclonal antibody CR57
[3] = tested on: human monoclonal antibody CRJA
[4] = tested on: human monoclonal antibody CRJB; remark: listed apart in the source
[5] = tested on: human monoclonal antibody CR57; remark: listed apart in the source
[6] = tested on: human monoclonal antibody CRJA; remark: listed apart in the source

Row | Sequence | Binding of CRJB to linear peptide (PEPSCAN-ELISA signal) [1] | Binding of CR57 (10 μg/ml) to looped/cyclic peptide (PEPSCAN-ELISA) [2] | Binding of CRJA to linear peptide (PEPSCAN-ELISA signal) [3] | Binding of CRJB (10 μg/ml) to looped/cyclic peptide (PEPSCAN-ELISA) [4] | Binding of CR57 to linear peptide (PEPSCAN-ELISA signal) [5] | Binding of CRJA (10 μg/ml) to looped/cyclic peptide (PEPSCAN-ELISA) [6] | Binding of CR57 (10 μg/ml) to looped/cyclic peptide (PEPSCAN-ELISA signal) [2] | Binding of CRJB (10 μg/ml) to looped/cyclic peptide (PEPSCAN-ELISA signal) [4] | Binding of CRJA (10 μg/ml) to looped/cyclic peptide (PEPSCAN-ELISA signal) [6] | Binding of human monoclonal antibody CRJB to linear peptide (PEPSCAN-ELISA signal) [1] | Binding of CR57 to looped/cyclic peptide (PEPSCAN-ELISA signal) [2] | Binding of human monoclonal antibody CRJA to linear peptide (PEPSCAN-ELISA signal) [3] | Binding of CRJB to looped/cyclic peptide (PEPSCAN-ELISA signal) [4] | Binding of human monoclonal antibody CR57 to linear peptide (PEPSCAN-ELISA signal) [5] | Binding of CRJA to looped/cyclic peptide (PEPSCAN-ELISA signal) [6] | binding of antibody CRJA to looped/cyclic peptide (PEPSCAN OD) [6]
1 | AHYKSVRTWNEILPS | 160 | 106 | 106 | 106 | 112 | 104 | – | – | – | – | – | – | – | – | – | –
2 | RVFPSGKCSGVAVSS | 110 | – | 58 | – | 69 | – | 75 | 89 | 43 | – | – | – | – | – | – | –
3 | EESLHNPYPDYRWLR | 123 | – | 85 | – | 76 | – | 121 | 85 | 100 | – | – | – | – | – | – | –
4 | CLDALESIMTTKSVS | 146 | 111 | 106 | 90 | 101 | 123 | – | – | – | – | – | – | – | – | – | –
5 | DVHNQVSGVDLGLPN | – | – | – | – | – | – | – | – | – | 133 | 120 | 124 | 113 | 117 | 99 | –
6 | HLRKLVPGFGKAYTI | 111 | 118 | 116 | 93 | 99 | 120 | – | – | – | – | – | – | – | – | – | –
7 | GVFFNGIILGPDGNV | 116 | 57 | 84 | 85 | 58 | 68 | – | – | – | – | – | – | – | – | – | –
8 | TKSVSFRRLSHLRKL | 125 | 88 | 103 | 94 | 83 | 91 | – | – | – | – | – | – | – | – | – | –
9 | IPLVHPLADPSTVFK | 156 | 99 | 130 | 107 | 96 | 106 | – | – | – | – | – | – | – | – | – | –
10 | KWCPPDQLVNLHDFR | 113 | 118 | 97 | 100 | 89 | 102 | – | – | – | – | – | – | – | – | – | –
11 | NVLIPEMQSSLLQQH | 120 | 97 | 92 | 99 | 72 | 110 | – | – | – | – | – | – | – | – | – | –
12 | DYTIWMPENPRLGMS | 127 | – | 106 | – | 93 | – | 83 | 66 | 86 | – | – | – | – | – | – | –
13 | AMQTSNETKWCPPDQ | 114 | 84 | 85 | 58 | 104 | 90 | – | – | – | – | – | – | – | – | – | –
14 | DKLGPWSPIDIHHLS | 103 | – | 78 | – | 62 | – | 104 | 70 | 89 | – | – | – | – | – | – | –
15 | LHSRVFPSGKCSGVA | 114 | – | 134 | – | 78 | – | 110 | 111 | 117 | – | – | – | – | – | – | –
16 | SRGKRASKGSETCGF | 93 | – | 70 | – | 64 | – | 96 | 86 | 82 | – | – | – | – | – | – | –
17 | VPGFGKAYTIFNKTL | 114 | 74 | 96 | 42 | 58 | 87 | – | – | – | – | – | – | – | – | – | –
18 | DPYDRSLHSRVFPSG | 120 | – | 92 | – | 90 | – | 106 | 71 | 186 | – | – | – | – | – | – | clearly bound
19 | LVIISPSVADLDPYD | 107 | – | 104 | – | 85 | – | 98 | 102 | 117 | – | – | – | – | – | – | –
20 | TIFNKTLMEADAHYK | 123 | 114 | 100 | 91 | 107 | 96 | – | – | – | – | – | – | – | – | – | –
21 | ESLHNPYPDYRWLRT | 132 | – | 80 | – | 92 | – | 123 | 92 | 106 | – | – | – | – | – | – | –
22 | STYCSTNHDYTIWMP | 99 | – | 79 | – | 86 | – | 90 | 82 | 90 | – | – | – | – | – | – | –
23 | TTFKRKHFRPTPDAC | 99 | – | 111 | – | 74 | – | 86 | 78 | 89 | – | – | – | – | – | – | –
24 | PSKGCLRVGGRCHPH | 138 | 92 | 78 | 99 | 69 | 71 | – | – | – | – | – | – | – | – | – | –
